Measurements from patent US11708423B2, “Chimeric engulfment receptor molecules and methods of use” (CERO THERAPEUTICS, INC., priority 2017, dated 2023).

Columns and labels:
[1] = system: HCC159 lung adenocarcinoma cells; assay: Tim4-IgG1 Fc staining for phosphatidylserine exposure after EGFR inhibitor treatment; type: cell-based; conditions: 12 hours, increasing concentrations 50 nM and higher
Text: HCC159 lung adenocarcinoma cells harbor an EGFR mutation and are sensitive to EGFR inhibition.

[2] = system: dexamethasone pre-treated thymocytes; assay: Phagocytosis of thymocytes by CER Ba/F3 cells in presence or absence of Racl inhibitor; type: cell-based

| SMILES | surface staining with Tim4-IgG1 Fc fusion protein (phosphatidylserine exposure) [1] | effect of Racl inhibitor on phagocytosis by CER21-transduced Ba/F3 cells ([2]; 6 hour co-culture, FACS) | effect of Racl inhibition on CER116 mediated phagocytosis ([2]; Ba/F3 cells, fluorescent micrographs) |
| --- | --- | --- | --- |
| C#Cc1cccc(Nc2ncnc3cc(OCCOC)c(OCCOC)cc23)c1 [Erlotinib] | enhanced surface staining with Tim4-IgG1 Fc fusion protein |  |  |
| CCN(CC)CCCC(C)Nc1nc(C)cc(Nc2ccc3nc(C)cc(N)c3c2)n1 (stereo not shown) [NSC23766] |  | abolishes phagocytosis | abolishes CER116 mediated phagocytosis of thymocytes |
| C=CC(=O)Nc1cc(Nc2nccc(-c3cn(C)c4ccccc34)n2)c(OC)cc1N(C)CCN(C)C [Osimeritinib] | enhanced surface staining with Tim4-IgG1 Fc fusion protein |  |  |
